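Values below derive from 48-hour exposures of cells grown in 96-well plates, with endpoints linearly interpolated between the two concentrations bracketing the appropriate inhibition level. Here, GI50 denotes the concentration required for 50% inhibition of growth.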 Activity calls are given as the source filed them. Rule as the data show it: active = GI50 up to about 1.1 µM and inactive = higher.
Tests used:
Test in all cases: DTP human tumour cell line panel, 48 h
786-0 = test system: 786-0
A549 = test system: A549
ACHN = test system: ACHN
BT-549 = test system: BT-549
CAKI-1 = test system: CAKI-1
CCRF-CEM = test system: CCRF-CEM
COLO 205 = test system: COLO 205
DU-145 = test system: DU-145
EKVX = test system: EKVX
HCC 2998 = test system: HCC 2998
HCT-116 = test system: HCT-116
HCT-15 = test system: HCT-15
HL-60 = test system: HL-60
HOP-62 = test system: HOP-62
HOP-92 = test system: HOP-92
HT-29 = test system: HT-29
Hs-578T = test system: Hs-578T
IGROV-1 = test system: IGROV-1
KM12 = test system: KM12
LOX IMVI = test system: LOX IMVI
M14 = test system: M14
MCF7 = test system: MCF7
MDA-MB-231 = test system: MDA-MB-231
MDA-MB-435 = test system: MDA-MB-435
MDA-N = test system: MDA-N
MOLT-4 = test system: MOLT-4
NCI-H23 = test system: NCI-H23
NCI-H460 = test system: NCI-H460
NCI-H522 = test system: NCI-H522
NCI/ADR-RES = test system: NCI/ADR-RES
OVCAR-3 = test system: OVCAR-3
OVCAR-4 = test system: OVCAR-4
OVCAR-5 = test system: OVCAR-5
OVCAR-8 = test system: OVCAR-8
PC-3 = test system: PC-3
RPMI-8226 = test system: RPMI-8226
SF-268 = test system: SF-268
SF-295 = test system: SF-295
SF-539 = test system: SF-539
SK-MEL-28 = test system: SK-MEL-28
SK-MEL-2 = test system: SK-MEL-2
SK-MEL-5 = test system: SK-MEL-5
SN12C = test system: SN12C
SNB-19 = test system: SNB-19
SNB-75 = test system: SNB-75
SR = test system: SR
SW-620 = test system: SW-620
T47D = test system: T47D
TK-10 = test system: TK-10
U-251 = test system: U-251
UACC-257 = test system: UACC-257
UACC-62 = test system: UACC-62
UO-31 = test system: UO-31
A498 = test system: A498
K562 = test system: K562
Malme-3M = test system: Malme-3M
SK-OV-3 = test system: SK-OV-3

CC(C)C1(NC(=O)C2CC3c4cccc5[nH]cc(c45)CC3N(C)C2)OC2(O)C3CCCN3C(=O)C(Cc3ccccc3)N2C1=O (centres undefined)
GI50 (786-0): 36.7 µM (inactive)
GI50 (A549): 7.21 µM (inactive)
GI50 (ACHN): 21.4 µM (inactive)
GI50 (BT-549): 55 µM (inactive)
GI50 (CAKI-1): 26 µM (inactive)
GI50 (CCRF-CEM): 5.9 µM (inactive)
GI50 (COLO 205): 14.2 µM (inactive)
GI50 (DU-145): 51.2 µM (inactive)
GI50 (EKVX): 30.3 µM (inactive)
GI50 (HCC 2998): 19 µM (inactive)
GI50 (HCT-116): 16.9 µM (inactive)
GI50 (HCT-15): 23.6 µM
GI50 (HL-60): 6.62 µM (inactive)
GI50 (HOP-62): > 100 µM (inactive)
GI50 (HOP-92): 18.6 µM (inactive)
GI50 (HT-29): 11.6 µM (inactive)
GI50 (Hs-578T): 27.6 µM (inactive)
GI50 (IGROV-1): 36.4 µM (inactive)
GI50 (KM12): 15.2 µM (inactive)
GI50 (LOX IMVI): 12.1 µM (inactive)
GI50 (M14): 42.7 µM (inactive)
GI50 (MCF7): 13.6 µM (inactive)
GI50 (MDA-MB-231): 17.7 µM (inactive)
GI50 (MDA-MB-435): 19.4 µM (inactive)
GI50 (MDA-N): 22.3 µM (inactive)
GI50 (MOLT-4): 3.81 µM (inactive)
GI50 (NCI-H23): 30.5 µM (inactive)
GI50 (NCI-H460): 19.2 µM (inactive)
GI50 (NCI-H522): 38.9 µM (inactive)
GI50 (NCI/ADR-RES): 35.4 µM (inactive)
GI50 (OVCAR-3): 16.2 µM (inactive)
GI50 (OVCAR-4): 53.5 µM (inactive)
GI50 (OVCAR-5): > 100 µM (inactive)
GI50 (OVCAR-8): 42.4 µM (inactive)
GI50 (PC-3): 5.62 µM (inactive)
GI50 (RPMI-8226): 4.44 µM (inactive)
GI50 (SF-268): > 100 µM (inactive)
GI50 (SF-295): 16.7 µM (inactive)
GI50 (SF-539): 15.4 µM (inactive)
GI50 (SK-MEL-28): 24.9 µM (inactive)
GI50 (SK-MEL-2): 29.2 µM (inactive)
GI50 (SK-MEL-5): 27.7 µM (inactive)
GI50 (SN12C): > 100 µM (inactive)
GI50 (SNB-19): 57.7 µM (inactive)
GI50 (SNB-75): 6.71 µM (inactive)
GI50 (SR): 12.9 µM (inactive)
GI50 (SW-620): 32.3 µM (inactive)
GI50 (T47D): 11.9 µM (inactive)
GI50 (TK-10): 30.6 µM (inactive)
GI50 (U-251): 34.3 µM (inactive)
GI50 (UACC-257): 48.1 µM (inactive)
GI50 (UACC-62): 65.8 µM (inactive)
GI50 (UO-31): 12.9 µM (inactive)

CCC(C)C(=O)OCC(=O)c1ccc(-c2ccccc2)cc1 (centres undefined)
GI50 (786-0): > 100 µM (inactive)
GI50 (A498): 32.7 µM (inactive)
GI50 (A549): 44.1 µM (inactive)
GI50 (ACHN): > 100 µM (inactive)
GI50 (BT-549): 45.4 µM (inactive)
GI50 (CAKI-1): 42.7 µM (inactive)
GI50 (CCRF-CEM): 35 µM (inactive)
GI50 (COLO 205): > 100 µM (inactive)
GI50 (DU-145): 52.2 µM (inactive)
GI50 (EKVX): 25.6 µM (inactive)
GI50 (HCC 2998): > 100 µM (inactive)
GI50 (HCT-116): 68.7 µM (inactive)
GI50 (HCT-15): 18.1 µM
GI50 (HL-60): > 100 µM (inactive)
GI50 (HOP-62): > 100 µM (inactive)
GI50 (HOP-92): > 100 µM (inactive)
GI50 (HT-29): 34.6 µM (inactive)
GI50 (Hs-578T): 45.9 µM (inactive)
GI50 (IGROV-1): > 100 µM (inactive)
GI50 (K562): 41 µM (inactive)
GI50 (KM12): 28.1 µM (inactive)
GI50 (LOX IMVI): 34.7 µM (inactive)
GI50 (M14): 89.7 µM (inactive)
GI50 (MCF7): 44.8 µM (inactive)
GI50 (MDA-MB-231): 78.9 µM (inactive)
GI50 (MDA-MB-435): 99.1 µM (inactive)
GI50 (MDA-N): 45.7 µM (inactive)
GI50 (MOLT-4): 46.9 µM (inactive)
GI50 (Malme-3M): 29.1 µM (inactive)
GI50 (NCI-H23): 63.7 µM (inactive)
GI50 (NCI-H460): > 100 µM (inactive)
GI50 (NCI-H522): 22.8 µM (inactive)
GI50 (NCI/ADR-RES): 76.9 µM (inactive)
GI50 (OVCAR-3): 37.8 µM (inactive)
GI50 (OVCAR-5): > 100 µM (inactive)
GI50 (OVCAR-8): 79.3 µM (inactive)
GI50 (PC-3): 63 µM (inactive)
GI50 (RPMI-8226): 24.5 µM (inactive)
GI50 (SF-268): 41.4 µM (inactive)
GI50 (SF-295): 59.8 µM (inactive)
GI50 (SF-539): > 100 µM (inactive)
GI50 (SK-MEL-28): 72.9 µM (inactive)
GI50 (SK-MEL-2): 41.6 µM (inactive)
GI50 (SK-MEL-5): 24.7 µM (inactive)
GI50 (SK-OV-3): > 100 µM (inactive)
GI50 (SN12C): > 100 µM (inactive)
GI50 (SNB-19): 80.7 µM (inactive)
GI50 (SNB-75): 80.7 µM (inactive)
GI50 (SR): 31.6 µM (inactive)
GI50 (SW-620): 53.6 µM (inactive)
GI50 (T47D): 22.3 µM (inactive)
GI50 (TK-10): 66.4 µM (inactive)
GI50 (U-251): 50.5 µM (inactive)
GI50 (UACC-257): 27.2 µM (inactive)
GI50 (UACC-62): 79.3 µM (inactive)
GI50 (UO-31): > 100 µM (inactive)
